Source: ChEMBL document CHEMBL5604062, “ASAP - ZIKV NS2B-NS3 protease fluorescence dose response” (2024)
Several values for one entry are separate records, joined by “and”; a condition that tells them apart may be missing. Equal entries are not always repeated.

What follows are molecules tested against Nonstructural protein 3 (Zika virus, UniProt A0A024AXB9) (assay: Functional biochemical assay to identify treatments for viral infectious disease that targets Zika NS2B-NS3 protease. Utilizing a direct enzyme activity measurement method, reading the fluorescence intensity is used to characterize the relative potency of inhibitors as IC50.).
Nonstructural protein 3, sequence (A0A024AXB9 whole entry): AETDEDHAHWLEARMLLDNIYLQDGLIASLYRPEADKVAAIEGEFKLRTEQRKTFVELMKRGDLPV
Design: species or system PRVABC59

SMILES | IC50
O=Cc1ccc(N2CCC(C(=O)NCc3cccc(-c4ccccc4)c3)CC2)cc1 | > 99.9 µM
COc1cc(Cc2c(-c3ccc(F)cc3)noc2C)nc(N2CCNCC2)n1 | 70.4 µM
NCc1cccc(NC(=O)c2cc(Cl)ccc2NS(=O)(=O)c2ccccc2)c1 | > 99.5 µM
NCc1cccc(NC(=O)[C@H](NC(=O)OCc2ccccc2)c2cccc(-c3ccnc(N)c3)c2)c1 | 48.1 µM
C=CC[C@H](Nc1cccc(C(=O)O)c1)c1cc(Cl)cc2[nH]ncc12 | > 99.5 µM
O=C(Nc1cc(Cl)cc(C(=O)Nc2cccc3c2OC[C@H](C(=O)O)C3)c1)OCc1ccccc1 | > 99.5 µM
N=C(N)NCCc1ccc(NC(=O)C(=O)/C=C/c2ccc(N)cc2)cc1 | 36.7 µM
NCc1cccc(NC(=O)[C@H](NC(=O)OCc2ccccc2)C2CCN(C3CCCC3)CC2)c1 | > 99.5 µM
COC1CN(C(=O)c2ccnc(NC(=O)c3cc(C4CC4)n(C)c3C)c2)C1 | > 25 µM
Cc1ncccc1-c1ccc([C@@H](NC(=O)OCc2ccccc2)C(=O)Nc2cccc(CN)c2)cc1 | 98.1 µM
FC(F)(F)c1nnc(COc2cncnc2)s1 | > 99.5 µM
NCc1cccc(NC(=O)[C@H](NS(=O)(=O)c2ccc(Oc3ccccc3Cl)cc2)c2ccc(OCc3ccccc3)cc2)c1 | 65.4 µM
O=C(Nc1ccc2c(c1)B(O)OC2)c1cccc(OCc2c(Cl)cccc2Cl)c1 | > 99.5 µM
Cc1cc(NS(=O)(=O)c2ccc(Oc3ccccc3Cl)cc2)c(C(=O)NCC(F)(F)F)cc1F | 72.3 µM
Cc1c(C(=O)Nc2cc(-c3cccnc3)ccn2)cc(C(C)C)n1C | > 25 µM
CCNC(=O)Nc1cc(Cl)cc(C(=O)Nc2cccc(CN)c2)c1 | 0.659 µM
Cc1c(C(=O)Nc2cc(C(=O)N3CCNC(=O)C3)ccn2)cc(C2CC2)n1C | > 25 µM
Cc1ncc(C(=O)Nc2cccc(CN)c2)cc1NC(=O)OCc1ccccc1 | > 99.5 µM
NC1CN(c2ccc(NS(=O)(=O)c3ccc(Oc4ccccc4Cl)cc3)cn2)C1 | > 99.5 µM
O=C1Cc2c(cccc2C(=O)N[C@H]2C[C@H](Cn3ccnc3)C2)N1 | > 25 µM
CC1(C)OB(c2cccc(F)c2CNC2CCCC2)OC1(C)C | > 99.5 µM
CS(=O)(=O)c1cccc(NC(=O)c2cc(Cl)cc(NC(=O)OCc3ccccc3)c2)c1 | > 99.5 µM
CCn1c(=O)c(N2C[C@H](C)C[C@H]2c2ccccc2)nc2ccccc21 | > 99.5 µM
O=C(Nc1ccc(NS(=O)(=O)c2ccc(Cl)cc2C(=O)O)cc1)c1ccccc1 | > 99.5 µM

SMILES | IC50
Cn1nc(C2CC2)cc1C(=O)Nc1cc(-c2cccnc2)ccn1 | > 25 µM
NCc1cccc(NC(=O)c2cc(C3CC3)nn2-c2ccccc2)c1 | > 99.5 µM
CC(=O)Nc1cc(Cl)cc(C(=O)Nc2cccc(CN)c2)c1 | 3.52 µM
CCc1ccccc1-c1ccc([C@@H](NC(=O)OCc2ccccc2)C(=O)Nc2cccc(CN)c2)cc1 | 5.83 µM
NCc1cccc(NC(=O)c2cc(C3CC3)n3nccc3n2)c1 | > 99.5 µM
c1ccc(OC2CCN(Cc3c[nH]c4ccccc34)CC2)cc1 | > 99.5 µM
CC[C@H](Cc1nnn[nH]1)c1ccc(NC(=O)c2cc(Cl)cc3[nH]ncc23)cc1 | > 99.5 µM
NCc1ccc(CNC(=O)c2cc(Cl)cc(NC(=O)OCc3ccccc3)c2)cc1 | 42.6 µM
NCc1cccc(NC(=O)[C@@H](NC(=O)OCc2ccccc2)c2ccc(F)c(F)c2)c1 | > 99.5 µM
CCOc1cccc(N2CC[C@@H](CO)C2)c1 | > 99.5 µM
C=CC[C@H]1NCc2cc(NCc3cc(Cl)cc4[nH]ncc34)ccc21 | > 25 µM
Cn1cc(C(=O)Nc2cccc(CN)c2)c(-c2cnccn2)n1 | > 99.5 µM
O=C(Nc1cc(Cl)cc(C(=O)NC[C@H]2C[C@@H]2C(=O)O)c1)OCc1ccccc1 | > 99.5 µM
COc1ccc(-c2cc(NS(=O)(=O)c3ccc(Cl)cc3C(=O)O)ccc2OC)cc1 | > 99.5 µM
NCc1cccc(NC(=O)Cc2cccc(Oc3ccncc3Br)c2)c1 | > 99.5 µM
NC1(c2cccc(NC(=O)c3cc(Cl)cc(NC(=O)OCc4ccccc4)c3)c2)CCOCC1 | > 99.5 µM
CCN1CC[C@H](COc2cccc([C@H](NC(=O)OCc3ccccc3)C(=O)Nc3cccc(CN)c3)c2)C1 | > 99.5 µM
O=C(N[C@H](C(=O)NCc1cccc(CC(F)(F)F)c1)c1ccc(OCc2ccccc2)cc1)OCc1ccccc1 | > 99.5 µM
C[C@@H](NC(=O)C1CCN(c2cccc(C(N)=O)n2)CC1)[C@H]1CCCNC1 | > 99.5 µM
NCc1cccc(NC(=O)c2cccc3c2CCC3)c1 | 19.5 µM
O=Cc1ccc(N2CCC(C(=O)NC[C@@H]3CCCN4CCCC[C@H]34)CC2)cc1 | > 0.782 µM
CCn1ccnc(N2C[C@@H](O)[C@H](c3c[nH]c4ccccc34)C2)c1=O | > 99.5 µM
Cn1c(COc2ccc(S(=O)(=O)Nc3ccc(Cl)cc3C(=O)O)cc2)nnc1C1CC1 | > 99.5 µM
CCn1ccnc(-n2cc([C@@H]3NC(=O)NC3=O)c3ccccc32)c1=O | > 99.5 µM

SMILES | IC50
O=Cc1ccc(N2CCC(C(=O)N3CCC(N4CCc5ccccc5C4)CC3)CC2)cc1 | > 0.782 µM
N[C@H](CO)c1cccc(NC(=O)c2cc(Cl)cc(NC(=O)OCc3ccccc3)c2)c1 | 57.4 µM
CCn1cc(C(=O)Nc2ccccc2)nc(N2CC[C@@H](CO)C2)c1=O | > 99.5 µM
NCCCc1cccc(NC(=O)c2cc(Cl)cc(NC(=O)OCc3ccccc3)c2)n1 | 19 µM
NCc1cccc(NC(=O)[C@@H]2c3ccsc3CCN2C(=O)OCc2ccccc2)c1 | > 99.5 µM
NCc1cc(Br)cc(NC(=O)c2cc(Cl)cc(NC(=O)OCc3ccccc3)c2)c1 | 16.7 µM
O[C@H]1CCCN(Cc2c[nH]c3ccccc23)C1 | > 99.5 µM
COc1ccc2c(O)nn(S(=O)(=O)c3ccc(C(=O)O)cc3)c2c1 | > 99.5 µM
O=C(O)[C@@H]1CC2(CC[C@@H]1NS(=O)(=O)c1ccc(Oc3ccccc3Cl)cc1)CC2 | > 99.5 µM
CN1CCC[C@H]1COc1cccc([C@@H](NC(=O)OCc2ccccc2)C(=O)Nc2cccc(CN)c2)c1 | > 99.5 µM
CCc1cc(C(=O)Nc2cccc(-n3nn[nH]c3=O)c2)sc1-c1ccc(Cl)cc1 | 24.7 µM
O=C(Nc1ccc2[nH]c(=O)[nH]c2c1)c1cc(F)cc2[nH]ncc12 | > 25 µM
O=C(Nc1cc(Cl)cc(C(=O)Nc2cccc(C3CCNCC3)c2)c1)OCc1ccccc1 | 13.2 µM and 12.5 µM
O=C(Nc1cc(Cl)cc(S(=O)(=O)Nc2cccc(-c3nn[nH]n3)c2)c1)OCc1ccccc1 | > 99.5 µM
CN(C)Cc1ccc(CNC(=O)[C@@H](NC(=O)OCc2ccccc2)c2ccc(OCc3ccccc3)cc2)cc1 | > 99.5 µM
N=C(N)NCCc1ccc(NC(=O)Oc2ccccc2)cc1 | 87.4 µM and 21.5 µM
CS(=O)(=O)c1ccc(-c2cccc([C@H](NC(=O)OCc3ccccc3)C(=O)Nc3cccc(CN)c3)c2)cc1 | 70.5 µM
COC1(C(=O)N[C@H](CC(=O)Nc2cccc(CN)c2)c2ccc(OCc3ccccc3)c(Br)c2)CC1 | 48.7 µM
CCC(=O)N1CCc2ccc(NS(=O)(=O)c3ccc(Cl)cc3C(=O)O)cc21 | > 99.5 µM
COCc1cc(Cl)cc(S(=O)(=O)Nc2cccc(-c3nnn[nH]3)c2)c1 | > 99.5 µM
NCc1cccc(NC(=O)C[C@@H]2[C@H]3CC[C@H](C3)N2C(=O)OCc2ccccc2)c1 | > 99.5 µM
Cc1ccc([C@@H](NC(=O)OCc2ccccc2)C(=O)Nc2cccc(CN)c2)cc1C | > 99.5 µM

The next lines start with the values.

IC50 | SMILES
0.078 µM and 0.065 µM | O=C(NCc1ccc(F)cc1)[C@H](Nc1ccc2c(c1)CNC2)c1cc(Cl)cc2[nH]ncc12
> 25 µM | Nc1n[nH]c2cc(C(=O)Nc3ccc4c(c3)CNC4)ccc12
> 25 µM | O=C1OCc2ccc(NC(=O)c3cccc4c3CNC4)cc21
> 25 µM | Cc1csc(CO[C@H]2CCN(C(=O)Nc3ccc4c(c3)CNC4)C2)n1
0.405 µM and 0.264 µM | CC(C)(c1nc2c(C(=O)Nc3ccc4c(c3)CNC4)cc(F)cc2[nH]1)S(C)(=O)=O
4.34 µM | CNCc1ccc(NC(=O)c2cc(Cl)cc3[nH]ncc23)cc1
3.42 µM | CNC(=O)[C@H](Nc1ccc2c(c1)CNC2)c1cccc2[nH]c(C(F)(F)F)nc12
> 99.5 µM | NCc1cccc(NC(=O)c2cc(NC(=O)OCc3ccccc3)ccc2C(F)(F)F)c1
0.075 µM and 0.05 µM | CNC(=O)[C@H](Nc1ccc2c(c1)CNC2)c1cc(Cl)cc2[nH]ncc12
0.163 µM | CCc1ccc(-c2nc3c(C(=O)Nc4ccc5c(c4)CNC5)cc(Cl)cc3[nH]2)cc1
> 25 µM | O=C(Nc1ccc2c(c1)CNC2)N1CCC[C@H](CC2CCC2)C1
> 25 µM | Cc1cnc([C@H]2CCCN(C(=O)Nc3ccc4c(c3)CNC4)C2)s1
42.4 µM | NCc1cccc(NC(=O)c2cc3c(F)cc(F)c(F)c3[nH]2)c1
0.207 µM and 0.615 µM | O=C(Nc1ccc2c(c1)CNC2)c1cccc2cn[nH]c12
0.034 µM and 0.023 µM | O=C(Nc1ccc2c(c1)CNC2)c1cc(F)cc(-c2cn[nH]c2)c1
6.31 µM | CNC(=O)[C@H](Nc1cc(Cl)cc(NC(=O)OCc2ccccc2)c1)c1cccc(CN)c1
1.22 µM | O=C(Nc1ccc(C2CNC2)cc1)c1cc(Cl)cc2[nH]ncc12

IC50 | SMILES
1.85 µM | Cc1ncc(Br)cc1C(=O)Nc1ccc2c(c1)CNC2
> 25 µM | CC(C)NC(=O)[C@H](Nc1ccc2c(c1)C(=O)OC2)c1cc(Cl)cc2[nH]ncc12
1.48 µM | O=C(Nc1cc(Cl)cc(C(=O)Nc2ccc3c(c2)CCNC3)c1)OCc1ccccc1
7.58 µM | O=C(Nc1ccc2c(c1)CNC2)c1cc(O)nc(C2CC2)c1
0.281 µM | O=C(Nc1ccc2c(c1)CNC2)c1cccc2[nH]ccc12
0.274 µM | O=C(Nc1ccc2c(c1)CNC2)c1cc(Br)cc2[nH]c([C@H]3CCCO3)nc12
> 25 µM | O=C1CC[C@H]2[C@H](CCN2C(=O)c2ccc3c(c2)CNC3)N1
0.055 µM and 0.049 µM | O=C(Nc1ccc2c(c1)CNC2)c1cc(Br)cc2[nH]ncc12
> 99.5 µM | O=C(O)c1cc2cc(-c3cccc([C@H]4CNCCO4)c3)ccc2[nH]1
> 99.5 µM | CNC(=O)[C@H](Nc1ccc(-c2nn[nH]n2)cc1)c1cc(Cl)cc(NC(=O)OCc2ccccc2)c1
> 25 µM | O=C(Nc1ccc2c(c1)CNC2)c1ccc2ncccc2c1
> 99.5 µM | Cc1c(NC(=O)OCc2ccccc2)cc(C(=O)Nc2cccc(CN)c2)cc1C(F)(F)F
0.863 µM | CC(=O)Nc1cccc(C(=O)Nc2ccc3c(c2)CNC3)c1
> 25 µM | O=C(Nc1ccc2c(c1)CNC2)c1cc2ncccc2s1
0.832 µM | CN1Cc2ccc(NC(=O)c3cc(Cl)cc4[nH]ncc34)cc2C1
0.376 µM | O=C(Nc1ccc2c(c1)CNCCC2)c1cc(Cl)cc2[nH]ncc12
